US7402314B2, “In vivo activation of tumor-specific cytotoxic T cells” (The Scripps Research Institute, priority 1995, dated 2008)

Columns and labels:
[1] = system: A2.1/K^b-Tg mice; assay: Peptide priming of A2.1/K^b-Tg mice, lytic activity of peptide-specific CTL; type: in vivo; set-up: Lytic Activity by Peptide-Specific CTL After Priming of A2.1/K^b-Tg Mice [Specific ^51Cr release (%)]: concentration or dose not given beside the values; details: for Lytic Activity by Peptide-Specific CTL After Priming of A2.1/K^b-Tg Mice [Specific ^51Cr release (%)]: E:T ratio of 60:1, peptide-pulsed T2A2/K^b targets, highest of at least three individual mice; for A2.1/K^b-restricted peptide-specific CTL response of A2.1/K^b-Tg mice (in words): mouse, in vivo
[2] = biological target: HLA-A2.1 (Homo sapiens, UniProt P04439, D140Y/D185E/D98H/E176V/E277Q/G131W/G231S/I119V/I121R/I166T/I218V/L300P/L318F/N151K/N90K/P208A/P217A/Q86G/Q94H/R138H/R169H/T345S); assay: Competition assay of peptide binding to HLA-A2.1 (inhibition of M1 58-66 binding, clone 12 lysis of EA2 targets)

Sequence	Lytic Activity by Peptide-Specific CTL After Priming of A2.1/K^b-Tg Mice [Specific ^51Cr release (%)] [1]	A2.1/K^b-restricted peptide-specific CTL response of A2.1/K^b-Tg mice (in words) [1]	A2.1-binding activity / affinity for the presenting MHC class I molecule (in words) [2]	A2.1-binding: inhibition of A2.1-binding of M1 (58-66) (%) [2]
AAPPVAPA [hu-wt-p53 69-76]	0%	–	–	–
AAPPVAPAPA [hu-wt-p53 69-78]	0%	–	–	–
AAPPVAPAPAA [hu-wt-p53 69-79]	0%	–	–	–
AAPTPAAPA [hu-wt-p53 78-86]	0%	–	–	–
ALNKMFCQL	0%	–	–	–
DLMLSPDDI [hu-wt-p53 42-50]	0%	–	–	–
GLAPPQHLI [hu-wt-p53 187-195]	1%	lack of CTL responsiveness	high	–
ILKEPVHGV [HIV-1 RT 476-484, reference compound]	–	could mount an A2.1/K^b-restricted CTL response	–	–
ITLEDSSGNL [hu-wt-p53 255-264]	3%	lack of CTL responsiveness	intermediate	–
LLGRDSFEV [mur-wt-p53 261-269, reference compound]	10%	No significant response	highest A2.1-binding activity of all p53 peptides tested	–
LLGRNSFEV	94%	detectable	–	–
LLPENNVLS [hu-wt-p53 25-33]	3%	–	–	–
LMLSPDDIEQ [hu-wt-p53 43-52]	3%	–	–	–
NLLGRNSFEV [hu-wt-p53 263-272]	3%	–	–	–
NTFRHSVVV [hu-wt-p53 210-218]	6%	–	–	–
PLDGEYFTL [hu-wt-p53 322-330]	0%	lack of CTL responsiveness	intermediate	–
SVTCTYSPA [hu-wt-p53 121-129]	–	–	–	8%
VAPAPAAPT [hu-wt-p53 73-81]	0%	–	–	–
VLSPLPSQA [hu-wt-p53 31-39]	3%	–	–	–
VLSPLPSQAM [hu-wt-p53 31-40]	0%	–	–	–
